# Reference: patent EP4635500A1, “THERAPEUTIC AGENT FOR BACTERIAL INFECTION” (Sumitomo Pharma Co., Ltd., priority 2022, dated 2024)
# Where two headings read alike, the source gives them in different places.
# Tested on: Enterobacterales
# Experiment: MIC, broth microdilution, CDC/FDA Antibiotic Resistance Isolate Bank (Example 7, Tables 8, 11, 12)
# Type: cell-based
compound,measurement,setting,value
CN(C)c1cc(NC(=O)CNC(C)(C)C)c(O)c2c1C[C@H]1C[C@H]3[C@H](N(C)C)C(=O)C(C(N)=O)=C(O)[C@@]3(O)C(=O)C1=C2O [Tigecyeline],MIC,"Citrobacter freundii, KUB No. 5654, AR Bank # 157, read-out: MIC",0.5 mg/L
same,MIC,"Enterobacter cloacae, Enterobacter cloacae KUB No. 5792, AR Bank #448",1 mg/L
same,MIC,"Enterobacter cloacae, Enterobacter cloacae KUB No. 5807, AR Bank #501",1 mg/L
same,MIC,"Enterobacter cloacae, Enterobacter cloacae KUB No. 5808, AR Bank #502",4 mg/L
same,MIC,"Enterobacter cloacae, Enterobacter cloacae group, KUB No. 5629, AR Bank # 132",0.5 mg/L
same,MIC,"Enterobacter cloacae, KUB No. 5529, AR Bank# 32",1 mg/L
same,MIC,"Enterobacter cloacae, KUB No. 5535, AR Bank# 38",4 mg/L
same,MIC,"Enterobacter cloacae, KUB No. 5547, AR Bank# 50",0.25 mg/L
same,MIC,"Enterobacter cloacae, KUB No. 5550, AR Bank# 53",1 mg/L
same,MIC,"Enterobacter cloacae, KUB No. 5557, AR Bank# 60",0.25 mg/L
same,MIC,"Enterobacter cloacae, KUB No. 5562, AR Bank # 65",0.5 mg/L
same,MIC,"Enterobacter cloacae, KUB No. 5569, AR Bank # 72",2 mg/L
same,MIC,"Enterobacter cloacae, KUB No. 5570, AR Bank # 73",1 mg/L
same,MIC,"Enterobacter cloacae, KUB No. 5590, AR Bank # 93",0.5 mg/L
same,MIC,"Enterobacter cloaccae, KUB No. 5651, AR Bank # 154",0.5 mg/L
same,MIC,"Enterobacter clooreae, KUB No. 5633, AR Bank # 136",2 mg/L
same,MIC,"Escherichia coli, Escherichia coli KUB No. 5783, AR Bank #437",1 mg/L
same,MIC,"Escherichia coli, Escherichia coli KUB No. 5794, AR Bank #450",0.5 mg/L
same,MIC,"Escherichia coli, Escherichia coli KUB No. 5795, AR Bank #451",0.5 mg/L
same,MIC,"Escherichia coli, Escherichia coli KUB No. 5796, AR Bank #452",0.5 mg/L
same,MIC,"Escherichia coli, Escherichia coli KUB No. 5803, AR Bank #861",0.25 mg/L
same,MIC,"Escherichia coli, KUB No. 5558, AR Bank # 61",0.25 mg/L
same,MIC,"Escherichia coli, KUB No. 5564, AR Bank # 67",0.25 mg/L
same,MIC,"Escherichia coli, KUB No. 5566, AR Bank # 69",0.25 mg/L
same,MIC,"Escherichia coli, KUB No. 5574, AR Bank # 77",0.12 mg/L
same,MIC,"Escherichia coli, KUB No. 5578, AR Bank # 81",0.12 mg/L
same,MIC,"Escherichia coli, KUB No. 5581, AR Bank # 84",0.12 mg/L
same,MIC,"Escherichia coli, KUB No. 5582, AR Bank # 85",0.25 mg/L
same,MIC,"Escherichia coli, KUB No. 5583, AR Bank # 86",0.5 mg/L
same,MIC,"Escherichia coli, KUB No. 5586, AR Bank # 89",0.25 mg/L
same,MIC,"Escherichia coli, KUB No. 5601, AR Bank # 104",0.12 mg/L
same,MIC,"Escherichia coli, KUB No. 5611, AR Bank # 114",0.12 mg/L
same,MIC,"Escherichia coli, KUB No. 5615, AR Bank # 118",0.12 mg/L
same,MIC,"Escherichia coli, KUB No. 5616, AR Bank # 119",0.5 mg/L
same,MIC,"Escherichia coli, KUB No. 5625, AR Bank # 128",0.12 mg/L
same,MIC,"Escherichia coli, KUB No. 5634, AR Bank # 137",0.5 mg/L
same,MIC,"Escherichia coli, KUB No. 5646, AR Bank # 149",0.25 mg/L
same,MIC,"Escherichia coli, KUB No. 5647, AR Bank # 150",0.25 mg/L
same,MIC,"Escherichia coli, KUB No. 5648, AR Bank # 151",0.25 mg/L
same,MIC,"Escherichia coli, KUB No. 5659, AR Bank # 162",0.5 mg/L
same,MIC,"Klebsiella aerogenes, Enterobacter aerogenes, KUB No. 5559, AR Bank # 62",2 mg/L
same,MIC,"Klebsiella aerogenes, Enterobacter aerogenes, KUB No. 5571, AR Bank # 74",0.25 mg/L
same,MIC,"Klebsiella aerogenes, Enterobacter aerogenes, KUB No. 5658, AR Bank # 161",1 mg/L
same,MIC,"Klebsiella oxytoca, KUB No. 5568, AR Bank # 71",1 mg/L
same,MIC,"Klebsiella oxytoca, KUB No. 5644, AR Bank # 147",0.5 mg/L
same,MIC,"Klebsiella ozaenae, KUB No. 5548, AR Bank# 51",1 mg/L
same,MIC,"Klebsiella ozaenae, KUB No. 5593, AR Bank # 96",0.5 mg/L
same,MIC,"Klebsiella pneumoniae, KUB No. 55, AR Bank# 47",0.5 mg/L
same,MIC,"Klebsiella pneumoniae, KUB No. 5531, AR Bank# 34",0.5 mg/L
same,MIC,"Klebsiella pneumoniae, KUB No. 5536, AR Bank# 39",1 mg/L
same,MIC,"Klebsiella pneumoniae, KUB No. 5537, AR Bank# 40",2 mg/L
same,MIC,"Klebsiella pneumoniae, KUB No. 5538, AR Bank# 41",1 mg/L
same,MIC,"Klebsiella pneumoniae, KUB No. 5540, AR Bank# 43",0.5 mg/L
same,MIC,"Klebsiella pneumoniae, KUB No. 5541, AR Bank# 44",0.5 mg/L
same,MIC,"Klebsiella pneumoniae, KUB No. 5543, AR Bank# 46",2 mg/L
same,MIC,"Klebsiella pneumoniae, KUB No. 5546, AR Bank# 49",4 mg/L
same,MIC,"Klebsiella pneumoniae, KUB No. 5563, AR Bank # 66",2 mg/L
same,MIC,"Klebsiella pneumoniae, KUB No. 5565, AR Bank # 68",2 mg/L
same,MIC,"Klebsiella pneumoniae, KUB No. 5572, AR Bank # 75",2 mg/L
same,MIC,"Klebsiella pneumoniae, KUB No. 5573, AR Bank # 76",0.25 mg/L
